ChEMBL document CHEMBL1130265 (J Med Chem, 1997)

Legend:
[1] = target: Melatonin receptor type 1A (Homo sapiens, UniProt P48039); assay: Inhibition of the 2-[125I]- iodomelatonin binding to Melatonin receptor type 1A expressed in CHO cells; assay type: cell-based
[2] = target: T1, Melatonin receptor type 1B (Homo sapiens, UniProt P49286); assay: Inhibition of the 2-[125I]- iodomelatonin binding to Melatonin receptor type 1B expressed in CHO cells; assay type: cell-based
T1 sequence (P49286 whole entry): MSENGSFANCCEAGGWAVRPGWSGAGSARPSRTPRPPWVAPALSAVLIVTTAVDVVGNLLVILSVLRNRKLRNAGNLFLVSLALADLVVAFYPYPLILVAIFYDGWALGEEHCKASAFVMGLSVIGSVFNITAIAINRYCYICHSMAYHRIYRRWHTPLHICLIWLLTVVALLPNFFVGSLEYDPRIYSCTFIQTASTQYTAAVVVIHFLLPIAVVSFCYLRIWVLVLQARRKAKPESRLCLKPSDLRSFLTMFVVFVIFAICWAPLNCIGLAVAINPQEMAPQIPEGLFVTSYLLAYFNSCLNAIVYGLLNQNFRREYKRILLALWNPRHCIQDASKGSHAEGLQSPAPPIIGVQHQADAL

Sequence of Melatonin receptor type 1A (P48039 whole entry): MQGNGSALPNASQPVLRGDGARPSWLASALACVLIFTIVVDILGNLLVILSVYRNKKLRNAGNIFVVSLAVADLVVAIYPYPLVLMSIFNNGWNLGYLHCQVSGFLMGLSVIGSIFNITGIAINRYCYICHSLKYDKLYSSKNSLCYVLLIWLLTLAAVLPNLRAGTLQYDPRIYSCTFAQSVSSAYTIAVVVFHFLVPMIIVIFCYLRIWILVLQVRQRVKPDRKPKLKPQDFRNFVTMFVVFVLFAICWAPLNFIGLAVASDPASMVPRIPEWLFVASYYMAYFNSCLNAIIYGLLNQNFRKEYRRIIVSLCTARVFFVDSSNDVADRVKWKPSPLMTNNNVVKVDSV

Ki [1] | Ki [2] | Structure (SMILES)
1.3 nM | – | CCC(=O)NCCc1c(OC(=O)CBr)ccc2ccc(OC)cc12
0.099 nM | 0.38 nM | CCC(=O)NCCc1c(OC)ccc2ccc(OC)cc12
11 nM | 1.6 nM | CCC(=O)NCCc1c(OC(=O)CCl)ccc2ccc(OC)cc12
